Test results as given in article PMC8578629, “Photoactivated cell-killing amino-based flavylium compounds” (Scientific Reports, 2021).

Legend:
[1] = Molar absorption coefficient (ɛ) at 630 nm; assay type: physicochemical
Description: The molar extinction coefficient or molar absorption (ɛ), of all synthesized pigments was determined in three different solvents (ethanol, methanol and DMSO). For each pigment, in each solvent, a range of concentrations was prepared and then the spectrum of each solution was read. Finally, the respective absorbances (collected at 630 nm) were represented as a function of concentration and the ɛ value was taken from the slope value of the equation curve.

[2] = Fluorescence quantum yield by the absolute method (integrating sphere); assay type: physicochemical; settings: in DMSO
Description: Based on the absorbance maxima of the different compounds (Fig. S2), the measurement of the quantum yield (QY) of the synthesized flavylium derivatives was performed using a calibrated Quantaurus-QY stand-alone integrating sphere setup C11347-11 (Hamamatsu Photonics, Hamamatsu, Japan) equipped with an integration sphere, a monochromator, a spectrograph, a 150 W xenon light source and a silicon charge coupled device. Each compound was dissolved in DMSO and diluted to ensure an absorbance of 0.1 from the λmax of excitation forward. Each compound was then irradiated at the corresponding wavelength and the absolute quantum yield determined. The fluorescence spectra was also recorded (Fig. S3). For each compound, four independent experiments were performed.

[3] = Oxygen singlet production by Singlet Oxygen Sensor Green assay; settings: for ^1O2 production: compound 25 μM, after white light irradiation 79.2 J cm^−2
Description: The production of singlet oxygen by the different amino-based compounds in solution was determined as follows: a stock solution of Singlet Oxygen Sensor Green was prepared at 5 mM in methanol (MeOH). Working solutions of the probe were prepared at 2 mM in 100 mM pH 7.5 Tris buffer and in 100 mM pH 7.5 Tris buffer with 10 mM of Sodium Azide. The compounds were then prepared at a stock concentration of 500 μM and the working solutions were prepared in 100 mM pH 7.5 Tris buffer and in 100 mM pH 7.5 Tris buffer with 10 mM of Sodium Azide. 1 μL of Singlet Oxygen Sensor Green working solutions and 100 μL of compounds solution were mixed to a final volume of 1000 μL (in 100 mM pH 7.5 Tris buffer or in 100 mM pH 7.5 Tris buffer with 10 mM of Sodium Azide). 100 μL of each solution was then added to a 96-well black plate and 100 μL of Deuterium Oxide was added for a final concentration of 1 μM Singlet Oxygen Sensor Green and 25 μM for the different amino-based compounds. The fluorescence was then registered in a spectrofluorometer using excitation/emission of 488/525 nm. After this procedure, the wells were irradiated with a white light source with a total of 79.2 J cm^−2, corresponding to a total irradiation time of 1 h (6 pulses of 10 min) and then, the fluorescence determined using the same excitation/emission pair. As a positive control, Methylene Blue was used at a final concentration of 10 μM. The oxygen singlet production methodology was performed in a dark room.

HaCaT cells [4] = test: Cellular photoactivation assay (white light or dark, Alamar Blue); assay type: cell-based, human
Description: A white light LED homemade device prototype has 96 LEDs appropriately arranged on a plate of 13 cm length × 8 cm width, with a distance from the microplate surface of 8 cm. The prototype has an irradiance of 21 W m^−2 and a wavelength range of 408–707 nm (Fig. S4).
For the cellular photoactivation assays, the white light source of 21 W m^−2 was used. Briefly, cells were seed at a density of 4 × 10^4 cells/mL onto 96 –well plates and after 24 h the compounds were added to the plates in different concentrations (6.25–100 μM) and incubated for a period of 4 h at 37 °C in an atmosphere of 5% CO2 and in the presence of DMEM with 2% FBS. After this period, the medium with the compounds was removed and fresh medium (DMEM with 2% FBS without phenol red (DMEM_2% FBS_w/o_PR) was added to cells. Following this procedure, cells were submitted to light irradiation, the selected light source at a height of 8 cm, in a chamber designed to ensure the same light quantity for each well during the treatment. Cells were irradiated for 10 min at an intensity of 50%, at room temperature (making a total energy exposition of 6.6 J cm^−2). The dark treatment was prepared by placing the plates for 10 min in a dark box at room temperature. After this, the 96 well plates were placed in an incubator at 37 °C in an atmosphere of 5% CO2 for 24 h. Then, to determine cell survival the Alamar Blue assay was performed as follows: after the 24 h, 20 μL of a solution of Resazurin (0.15 mg mL^−1 in PBS filtered in 0.22 μm filters) were added to each well (making a total volume of 120 μL per well), and the plates were incubated between 4–6 h (until the development of visible color change from violet to pink). The fluorescence intensity of each well was then determined at 560/590 nm (ex/em) (FlexStation 3 Multi-Mode Microplate Reader).

HaCaT cells [5] = test: Reactive oxygen species production (DCF-DA); assay type: cell-based, human; settings: 25 μM, 6.6 J cm^−2, versus control cells
Description: Cells reactive oxygen species (ROS) production was evaluated following the standard method. Briefly, cells were seed at a density of 4 × 10^4 cells/mL onto 96 well plates and after 24 h the compounds were added at 25 μM (non-toxic concentration) and the same previous procedure for the photoactivation assays was followed. After that, cells were washed twice in Hank’s Buffered Saline Solution (HBSS) and incubated with 100 μL of 50 μM 2′,7′-dichlorodihydrofluorescein diacetate (DCF‐DA) for 30 min in the same previous conditions. For positive control, cells were treated with 100 μM H2O2 for 30 min prior to the addition of DCF-DA. Cells were then washed twice with HBSS and incubated with fresh DMEM medium for 24 h. After this period, the fluorescence intensity at […] (ex/em) was determined in a FlexStation 3 Multi-Mode Microplate Reader.

[6] = MTT cytotoxicity assay, fibroblasts; assay type: cell-based; settings: human, HFF-1 cells (fibroblasts), HFF-1, proliferation condition, dark
Description: (§1) The cytotoxicity of amino-based flavylium compounds to HFF-1 (ATCC Number: SCRC-1041) and HaCaT cells was evaluated using the standard MTT assay. Briefly, cells were seeded at a density of 8 × 10^5 and 4 × 10^4 cells/mL, respectively, in 96-well plate and incubated at 37 °C in a 5% CO2 atmosphere. Cells were allowed to grow for 24 h or until reaching monolayer confluency, and serially diluted compound solutions (6.3–100 µM) were added to the plate wells. The stock solutions of each compound were prepared at 200 mM in DMSO, the maximum % of DMSO in the cells was 0.05%. Then, cells were incubated for 48 h at 37 °C, after which the plate wells were washed once with phosphate buffered saline (PBS, Sigma-Aldrich), followed by addition of a 0.45 mg/mL MTT solution to each well. Crystals were allowed to form for 1.5 h. The reaction was stopped by rejecting the medium followed by the addition of 100 µL of DMSO (Sigma-Aldrich). The absorbance was read at 570 nm in FlexStation 3 Multi-Mode Microplate Reader (Molecular Devices, California, USA).

[7] = MTT cytotoxicity assay, keratinocytes; assay type: cell-based; settings: human, HaCaT cells (keratinocytes), dark
Description: as §1

Molar absorption coefficient ɛ at 630 nm ([1]; DMSO) | Molar absorption coefficient ɛ at 630 nm ([1]; Ethanol) | Molar absorption coefficient ɛ at 630 nm ([1]; Methanol) | Quantum yield of fluorescence (Φf), mean ± SD [2] | Compound | ^1O2 production [3] | Dark cytotoxicity to HaCaT cells (in words) (HaCaT cells [4]; 4 h incubation, 6.25–100 μM applied, dark) | Photoactivation, dark versus white light (in words) (HaCaT cells [4]; 4 h incubation, 6.25–100 μM applied, white light 6.6 J cm^−2) | ROS production upon white light irradiation (in words) (HaCaT cells [5]) | ^1O2 production yield, times higher (positive control) ([3]; 10 μM, same amount of light irradiation) | IC50 at 48 h [6] [µM] | IC50 at 48 h ([7]; monolayer confluence) [µM] | IC50 at 48 h ([7]; proliferation) [µM] | Reduction of cell survival upon light irradiation (HaCaT cells [4]; applied concentration 6.25 and 12.5 μΜ) | Cell survival (HaCaT cells [4]; either in the presence or absence of light, highest concentration tested) [%]
15,224 M^−1 cm^−1 | 16,422 M^−1 cm^−1 | 15,224 M^−1 cm^−1 | undetectable | CN(C)c1ccc(/C=C/c2ccc3c(O)cc(O)cc3[o+]2)cc1 [5,7OHst4′NMe2, 5,7-dihydroxy-2-(4′-dimethylaminostyryl)-benzopyrylium] | non-significant enhancement | did not present significant effects | not photoactivated | did not modulate the production of ROS | – | – | – | – | – | –
– | – | – | – | CN(C)c1ccc2nc3ccc(=[N+](C)C)cc-3sc2c1 [methylene blue, Methylene Blue, reference compound] | – | – | – | – | about 5 fold | – | – | – | – | –
– | – | – | undetectable | CN(C)c1ccc(-c2ccc3c(O)cccc3[o+]2)cc1 [5OH4′NMe2, 5-hydroxy-4′-(dimethylamino)-benzopyrylium] | non-significant enhancement | – | – | significantly increased | – | 47.25 ± 0.21 | 47.3 ± 0.3 | 14.9 ± 0.1 | less than 20% | 40
